In this test the test system is islet grafts in STZ-induced diabetic hIAPP+/− FVB/N mice. The test can be described thus: Amyloid accumulation in islet grafts (thioflavin S staining). The class given is in vivo, mouse. Conditions: islets cultured 72 hours with Compound 1, vs control group; FIG. 7G. The procedure:
A marginal mass renal subcapsular islet transplantation model was used to assess the in vivo islet function of hIAPP^+/− mice. To induce diabetes, 180 mg/kg of streptozotocin (STZ, Sigma-Aldrich) was administered to 8- to 10-week-old FVB/N mice. Mice were considered to have diabetes when two consecutive blood glucose level readings were higher than 300 mg/dL. Equal amounts (400 IEQ of islets per recipient) of islets isolated from hIAPP^+/− mice were allocated to the following two groups: culture medium supplemented with 0.625% BSA (BSA group) and 0.625% BSA plus Compound 1 (BSA+Compound 1 group) to evaluate the combined effect of Compound 1 on islet mass and function during ex vivo culture. After culture for 72 hours, islets were transplanted into the renal subscapular space of diabetic hIAPP^+/− mice. The IE number was calculated using the Ricordi algorithm by classifying islets according to their diameter. After islet transplantation, non-fasting blood glucose levels were measured three times a week for the first 2 weeks and twice a week for the last 2 weeks. […]

For `O=S1(=O)CCN(Cc2cc(NC3CCOCC3)c3[nH]c(-c4ccccc4)cc3c2)CC1` [Compound 1], the “proportion of accumulation of amyloid in sections of islet grafts” value is listed as “significantly reduced”.

The values above are taken from patent US12677825B2, “Composition for protecting islet transplantation” (LG CHEM, LTD., priority 2020, dated 2026).
